This is an account of results in patent US9775904B2 (priority 2014, dated 2017).

Read-outs that look alike come from different tables or passages of the source. Bounds are passed on as bounds.

The nature of data set [1]: Solubility testing in buffer (HPLC-UV). The class given is physicochemical. Here is the method:
Prior to the testing of solubility and stability of a peptide batch, its purity (HPLC-UV) was determined.
. Therefore, solutions from solid samples were prepared in different buffer systems with a concentration of 10 mg/mL compound based on the previously determined % purity. HPLC-UV was performed after 2 h of gentle agitation from the supernatant, which was obtained by 20 min of centrifugation at 4500 rpm.
[…]. This analysis also served as starting point (t0) for the stability testing.

In data set [2] the target is T1, human GLP-1 receptor (hGLP-1 R) (Homo sapiens, UniProt P43220).
T1 construct: expressed in transfected cells
The data set is described as follows: cAMP response of HEK-293 cells expressing human GLP-1 receptor (HTRF). The conditions noted are these: Table 6. The class given is cell-based. Here is the method:
(§1) cAMP content of cells was determined using a kit from Cisbio Corp. (cat. no. 62AM4PEC) based on HTRF (Homogenous Time Resolved Fluorescence). For preparation, cells were split into T175 culture flasks and grown overnight to near confluency in medium (DMEM/10% FBS). Medium was then removed and cells washed with PBS lacking calcium and magnesium, followed by proteinase treatment with accutase (Sigma-Aldrich cat. no. A6964). Detached cells were washed and resuspended in assay buffer (1×HBSS; 20 mM HEPES, 0.1% BSA, 2 mM IBMX) and cellular density determined. They were then diluted to 400000 cells/ml and 25 μl-aliquots dispensed into the wells of 96-well plates. For measurement, 25 μl of test compound in assay buffer was added to the wells, followed by incubation for 30 minutes at room temperature.

The nature of data set [3]: Pharmacokinetic testing in mice, s.c. The class given is in vivo. The conditions noted are these: mouse, plasma, sc, 1 mg/kg s.c. Here is the method: Mice were dosed 1 mg/kg subcutaneously (s.c.). The mice were sacrified and blood samples were collected after 0.25, 0.5, 1, 2, 4, 8, 16 and 24 hours post application. Plasma samples were analyzed after protein precipitation via liquid chromatography mass spectrometry (LC/MS). PK parameters and half-life were calculated using WinonLin Version 5.2.1 (non-compartment model).

The nature of data set [4]: Pharmacokinetic testing in Göttinger minipigs, s.c. The class given is in vivo. The settings on record: female, minipig, plasma, sc, Mini pigs, 0.1 mg/kg s.c. Here is the method:
Female Göttinger minipigs were dosed 0.1 mg/kg subcutaneously (s.c.). Blood samples were collected after 0.25, 0.5, 1, 2, 4, 8, 24, 32, 48, 56 and 72 hours post application. Plasma samples were analyzed after protein precipitation via liquid chromatography mass spectrometry (LC/MS). PK parameters and half-life were calculated using WinonLin Version 5.2.1 (non-compartment model).

Data set [5] is described as follows: Acute effect on blood glucose in fed female DIO C57BL/6 mice. The class given is in vivo. The conditions noted are these: t=1, 2, 3, 4, 6 and 24 h post dosing. Here is the method:
(§2) C57BL/6 Harlan mice are housed in groups in a specific pathogen-free barrier facility on a 12 h light/dark cycle with free access to water and standard or high-fat diet. After prefeeding on high-fat diet, mice are stratified to treatment groups (n=8), so that each group has similar mean body weight. An age-matched group with ad-libitum access to standard chow is included as standard control group. Before the experiment, mice are subcutaneously (s.c.) injected with vehicle solution and weighed for 3 days to acclimate them to the procedures.
1) Acute effect on blood glucose in fed female DIO mice: initial blood samples are taken just before first administration (s.c.) of vehicle (phosphate buffer solution) or the exendin-4 derivatives (dissolved in phosphate buffer), respectively. The volume of administration is 5 mL/kg. The animals have access to water and their corresponding diet during the experiment. Blood glucose levels are measured at t=0 h, t=1 h, t=2 h, t=3 h, t=4 h, t=6 h and t=24 h (method: Accu-Check glucometer). Blood sampling is performed by tail incision without anaesthesia.
(§3) Statistical analyses are performed with Everstat 6.0 by repeated measures two-way ANOVA and Dunnetts post-hoc analyses (glucose profile) and 1-way-ANOVA, followed by Dunnetts post-hoc test (body weight, body fat). Differences versus vehicle-treated DIO control mice are considered statistically significant at the p<0.05 level.
At predefined time points, more blood samples were taken to measure blood glucose and generate the blood glucose profile over 24 h.

Data set [6] concerns the target T2, human glucagon receptor (hGlucagon R) (Homo sapiens, UniProt P47871).
T2 construct: expressed in transfected cells
Nature of the data set: cAMP response of HEK-293 cells expressing human glucagon receptor (HTRF). The class given is cell-based. Here is the method:
as §1

The target of data set [7] is T3, human GIP receptor (hGIP-R) (Homo sapiens, UniProt P48546).
T3 construct: expressed in transfected cells
T3 sequence (P48546 22-466): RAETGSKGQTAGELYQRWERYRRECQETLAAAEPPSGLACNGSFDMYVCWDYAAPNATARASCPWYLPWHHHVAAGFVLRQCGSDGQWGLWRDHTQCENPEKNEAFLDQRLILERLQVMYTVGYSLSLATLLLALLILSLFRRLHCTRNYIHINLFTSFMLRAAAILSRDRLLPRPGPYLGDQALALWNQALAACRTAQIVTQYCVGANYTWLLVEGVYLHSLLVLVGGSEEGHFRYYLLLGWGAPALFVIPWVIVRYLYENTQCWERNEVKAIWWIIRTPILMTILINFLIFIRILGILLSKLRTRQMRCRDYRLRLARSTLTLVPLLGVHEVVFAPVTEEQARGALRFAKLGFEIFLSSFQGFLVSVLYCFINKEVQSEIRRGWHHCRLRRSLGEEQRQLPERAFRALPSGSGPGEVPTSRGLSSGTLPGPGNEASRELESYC
The data set is described as follows: cAMP response of HEK-293 cells expressing human GIP receptor (HTRF). The class given is cell-based. Here is the method: as §1

Data set [8] is described as follows: Chronic effect on body weight and body fat in female DIO C57BL/6 mice, 4 weeks. The class given is in vivo. The settings on record: for Day on which significant body weight decrease begins / Daily body weight compared to vehicle DIO control mice: 4 weeks; for Day on which significant body weight decrease begins: continuing through the end of the study; for Body fat change / Overall weight change: DIO mice, 4-week treatment, mean ± SEM; for Body fat change: NMR. Here is the method:
as §2
2) Chronic effect on body weight in female DIO mice: mice are treated once (s.c. in evening hours) or twice daily (s.c. in the morning and in the evening), respectively, at the beginning and the end of the light phase with either vehicle or exendin-4 derivatives for 4 weeks. Body weight is recorded daily. Two days before start of treatment and on day 26, total fat mass is measured by nuclear magnetic resonance (NMR).
as §3
Body weight was recorded daily, and body fat content was determined before the start and after 4 weeks of treatment. […] These changes resulted from a decrease in body fat, as shown by the absolute changes in body fat content (Table 10, FIG. 3).
Body weight was recorded daily, and body fat content was determined before the start and after 4 weeks of treatment.

[9] abbreviates: pH 4.5, target concentration 10 mg/ml, read-out: solubility [mg/ml] pH 4.5.
[10] abbreviates: pH 7.4, target concentration 10 mg/ml, read-out: solubility [mg/ml] pH 7.4.

T2 sequence (P47871 26-477): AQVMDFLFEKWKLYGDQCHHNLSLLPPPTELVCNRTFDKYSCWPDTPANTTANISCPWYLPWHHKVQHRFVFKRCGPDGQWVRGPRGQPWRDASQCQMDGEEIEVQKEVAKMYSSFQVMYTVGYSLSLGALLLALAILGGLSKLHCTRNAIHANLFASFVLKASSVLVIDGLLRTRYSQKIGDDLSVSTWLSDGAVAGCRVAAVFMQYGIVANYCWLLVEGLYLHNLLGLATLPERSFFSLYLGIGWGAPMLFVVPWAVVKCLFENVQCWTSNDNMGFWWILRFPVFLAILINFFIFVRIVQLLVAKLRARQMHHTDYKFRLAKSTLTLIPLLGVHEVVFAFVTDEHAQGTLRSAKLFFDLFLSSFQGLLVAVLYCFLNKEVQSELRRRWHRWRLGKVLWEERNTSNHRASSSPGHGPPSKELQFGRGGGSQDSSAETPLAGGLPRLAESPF
T1 sequence (P43220 24-463): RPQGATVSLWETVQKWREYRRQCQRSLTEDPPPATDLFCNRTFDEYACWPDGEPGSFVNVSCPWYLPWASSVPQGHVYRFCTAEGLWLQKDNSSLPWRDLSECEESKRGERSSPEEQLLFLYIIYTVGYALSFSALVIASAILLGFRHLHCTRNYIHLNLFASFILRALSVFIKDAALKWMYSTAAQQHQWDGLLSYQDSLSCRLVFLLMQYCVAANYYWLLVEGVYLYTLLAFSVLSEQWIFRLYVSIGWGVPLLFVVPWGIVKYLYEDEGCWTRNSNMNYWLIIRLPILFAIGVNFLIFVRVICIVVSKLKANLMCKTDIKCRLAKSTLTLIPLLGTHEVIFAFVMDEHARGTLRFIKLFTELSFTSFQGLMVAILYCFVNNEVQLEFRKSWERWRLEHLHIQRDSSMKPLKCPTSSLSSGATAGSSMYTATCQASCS

`CCCCCCCCCCCCCCCC(=O)N[C@@H](CCC(=O)N[C@@H](CCC(=O)NCCCC[C@H](NC(=O)[C@H](CCC(N)=O)NC(=O)[C@H](CCCCN)NC(=O)[C@H](CO)NC(=O)[C@H](CC(C)C)NC(=O)[C@H](CC(=O)O)NC(=O)[C@H](CO)NC(=O)[C@@H](NC(=O)[C@H](Cc1ccccc1)NC(=O)[C@@H](NC(=O)CNC(=O)[C@H](CCC(N)=O)NC(=O)C(C)(C)NC(=O)[C@@H](N)Cc1c[nH]cn1)[C@@H](C)O)[C@@H](C)O)C(=O)N[C@@H](CC(=O)O)C(=O)N[C@@H](CCC(=O)O)C(=O)N[C@@H](CCC(N)=O)C(=O)N[C@@H](CCCNC(=N)N)C(=O)N[C@@H](C)C(=O)N[C@@H](CCCCN)C(=O)N[C@@H](CC(C)C)C(=O)N[C@@H](Cc1ccccc1)C(=O)N[C@H](C(=O)N[C@@H](CCC(=O)O)C(=O)N[C@@H](Cc1c[nH]c2ccccc12)C(=O)N[C@@H](CC(C)C)C(=O)NC(C)(C)C(=O)N[C@@H](C)C(=O)N[C@H](C)C(=O)NCC(=O)N1CCC[C@H]1C(=O)N[C@@H](CO)C(=O)N[C@@H](CO)C(=O)NCC(=O)N[C@@H](C)C(=O)N1CCC[C@H]1C(=O)N1CCC[C@H]1C(=O)N1CCC[C@H]1C(=O)N[C@@H](CO)C(N)=O)[C@@H](C)CC)C(=O)O)C(=O)O` [SEQ ID NO: 7, H-Aib-Q-G-T-F-T-S-D-L-S-K-Q-K(γE-γE-x53)-D-E-Q-R-A-K-L-F-I-E-W-L-Aib-A-dAla-G-P-S-S-G-A-P-P-P-S-NH2]: the solubility at 2 h in data set [1] (setting [9]) and in data set [1] (setting [10]) was over 8 mg/mL throughout. For the same compound, the EC50 was determined as 0.0034 nM in data set [2]; 0.101 nM in data set [6] (Table 6); 7.62 nM in data set [7] (Table 6, read-out: EC50 hGIP-R). The Cmax turned out to be 5510 ng/mL in data set [3] and 667 ng/mL in data set [4]. In addition, the half-life was 3.1 h in data set [3] and 29 h in data set [4]. Moreover, in data set [5] (50 μg/kg s.c., p<0.0001), the “Blood glucose compared to DIO control mice” value is “significant decrease in blood glucose”. Besides, in data set [8] (50 μg/kg bid s.c.), the “Day on which significant body weight decrease begins” value was 7 days. In data set [8] (50 μg/kg bid s.c., p>0.0001 by the end of the study (so in the source)), the “Daily body weight compared to vehicle DIO control mice” value is recorded as “statistically significant decrease”. In addition, in data set [8] (50 μg/kg bid s.c.), the “Body fat change” value is -3.73 ± 0.8 g. In addition, the “Overall weight change” value in data set [8] (50 μg/kg bid s.c.) was -5.49 ± 0.9 g.

Turning to `CCCCCCCCCCCCCCCC(=O)N[C@@H](CCC(=O)N[C@@H](CCC(=O)NCCCC[C@H](NC(=O)[C@H](CCC(N)=O)NC(=O)[C@H](CCCCN)NC(=O)[C@H](CO)NC(=O)[C@H](CC(C)C)NC(=O)[C@H](CC(=O)O)NC(=O)[C@H](CO)NC(=O)[C@@H](NC(=O)[C@H](Cc1ccccc1)NC(=O)[C@@H](NC(=O)CNC(=O)[C@H](CCC(N)=O)NC(=O)C(C)(C)NC(=O)[C@@H](N)Cc1c[nH]cn1)[C@@H](C)O)[C@@H](C)O)C(=O)N[C@@H](CC(=O)O)C(=O)N[C@@H](CCC(=O)O)C(=O)N[C@@H](CCC(N)=O)C(=O)N[C@@H](CCCNC(=N)N)C(=O)N[C@@H](C)C(=O)N[C@@H](CCCCN)C(=O)N[C@@H](CC(C)C)C(=O)N[C@@H](Cc1ccccc1)C(=O)N[C@H](C(=O)N[C@@H](CCC(=O)O)C(=O)N[C@@H](Cc1c[nH]c2ccccc12)C(=O)N[C@@H](CC(C)C)C(=O)NC(C)(C)C(=O)N[C@@H](CCCCN)C(=O)NCC(=O)NCC(=O)N1CCC[C@H]1C(=O)N[C@@H](CO)C(=O)N[C@@H](CO)C(=O)NCC(=O)N[C@@H](C)C(=O)N1CCC[C@H]1C(=O)N1CCC[C@H]1C(=O)N1CCC[C@H]1C(=O)N[C@@H](CO)C(N)=O)[C@@H](C)CC)C(=O)O)C(=O)O` [SEQ ID NO: 15, H-Aib-Q-G-T-F-T-S-D-L-S-K-Q-K(γE-γE-x53)-D-E-Q-R-A-K-L-F-I-E-W-L-Aib-K-G-G-P-S-S-G-A-P-P-P-S-NH2], the solubility at 2 h in data set [1] (setting [9]) was over 8 mg/mL. For the same compound, the solubility at 2 h in data set [1] (setting [10]) is over 8 mg/mL. In addition, the “Blood glucose compared to DIO control mice” value in data set [5] (50 μg/kg s.c. once daily, p<0.001) was “significant decrease in blood glucose”. In addition, in data set [6] (Table 7, comparison of residue in position 14), the concentration for a half-maximal effect (EC50) was determined as 0.394 nM. In addition, in data set [7] (Table 7, comparison of residue in position 14, read-out: EC50 hGIP-1), the EC50 turned out to be 11.9 nM. Besides, in data set [8] (50 μg/kg qd s.c.), the “Day on which significant body weight decrease begins” value is 4 days, the “Body fat change” value was -4.01 ± 0.68 g and the “Overall weight change” value was -4.59 ± 1.1 g. Moreover, the “Daily body weight compared to vehicle DIO control mice” value in data set [8] (50 μg/kg qd s.c., p>0.001 by the end of the study (so in the source)) is “statistically significant decrease”.
